The values that follow come from ChEMBL document CHEMBL1926511, “Novel amino-piperidines as potent antibacterials targeting bacterial type IIA topoisomerases” (Bioorg Med Chem Lett, 2011).

Converted amounts (≈) assume the structure as drawn. The source made the active and inactive calls. No cut-off for these calls is given here.

T1 sequence (Q12809 whole entry): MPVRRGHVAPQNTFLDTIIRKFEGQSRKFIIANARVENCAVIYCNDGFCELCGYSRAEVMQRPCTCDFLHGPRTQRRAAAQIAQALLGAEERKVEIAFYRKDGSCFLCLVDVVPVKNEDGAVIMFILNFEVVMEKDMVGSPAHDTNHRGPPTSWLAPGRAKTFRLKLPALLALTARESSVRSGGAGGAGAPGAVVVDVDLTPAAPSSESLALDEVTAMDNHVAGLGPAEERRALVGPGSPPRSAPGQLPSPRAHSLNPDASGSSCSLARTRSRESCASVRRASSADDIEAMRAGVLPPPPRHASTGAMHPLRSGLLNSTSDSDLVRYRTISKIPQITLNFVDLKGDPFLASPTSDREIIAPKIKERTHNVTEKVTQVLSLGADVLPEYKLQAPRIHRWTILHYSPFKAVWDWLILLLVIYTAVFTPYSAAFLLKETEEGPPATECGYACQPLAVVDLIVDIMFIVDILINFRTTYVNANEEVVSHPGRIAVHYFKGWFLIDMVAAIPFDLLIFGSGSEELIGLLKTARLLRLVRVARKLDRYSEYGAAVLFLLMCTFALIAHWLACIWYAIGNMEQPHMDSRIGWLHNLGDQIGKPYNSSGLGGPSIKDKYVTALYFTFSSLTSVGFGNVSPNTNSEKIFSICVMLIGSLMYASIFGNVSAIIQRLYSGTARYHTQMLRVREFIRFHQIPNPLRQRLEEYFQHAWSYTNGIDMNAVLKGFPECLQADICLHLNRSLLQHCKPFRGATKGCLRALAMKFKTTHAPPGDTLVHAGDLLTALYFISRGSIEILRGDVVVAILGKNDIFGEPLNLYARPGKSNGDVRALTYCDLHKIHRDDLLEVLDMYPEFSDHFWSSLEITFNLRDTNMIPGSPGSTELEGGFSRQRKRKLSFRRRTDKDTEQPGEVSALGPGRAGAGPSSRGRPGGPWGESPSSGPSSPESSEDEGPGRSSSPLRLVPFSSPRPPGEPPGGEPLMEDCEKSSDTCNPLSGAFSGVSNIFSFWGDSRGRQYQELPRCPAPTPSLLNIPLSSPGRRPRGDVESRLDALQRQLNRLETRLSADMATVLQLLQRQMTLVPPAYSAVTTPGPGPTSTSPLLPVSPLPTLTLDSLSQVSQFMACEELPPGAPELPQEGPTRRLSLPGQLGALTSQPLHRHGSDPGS

Target in the first data set: not listed separately
The experiment in a line: Inhibition of Haemophilus influenzae DNA gyrase-dependent DNA replication by scintillation proximity assay.
Settings: not given
Background: Scintillation proximity formats need no separation of bound from free tracer.
As to `COc1ccc2ncc(F)c(CCN3CC[C@@H](NCc4cc5c(cn4)OCCO5)[C@@H](O)C3)c2n1`, the IC50 (as a rule, the concentration at which inhibition is half-maximal) was 0.051 µg/mL (≈ 0.109 µM).

For the molecule `COc1ccc2ncc(C#N)c(CCN3CCC(NCc4cc5c(cn4)OCS5)CC3)c2c1`, the IC50 came to 0.06 µg/mL (≈ 0.13 µM).

Turning to `COc1ccc2nccc([C@@H](O)CN3CCC(NCc4cc5c(cn4)OCCO5)CC3)c2n1`, the IC50 turned out to be 0.016 µg/mL (≈ 0.0354 µM).

As for `COc1ccc2ncc(F)c(CCN3CC[C@H](NCc4cc5c(cn4)OCCO5)[C@@H](O)C3)c2n1`, the half-inhibitory concentration (IC50) stood at 0.058 µg/mL (≈ 0.124 µM).

`COc1ccc2ncc(C#N)c(CCN3CCC(NCc4cc5c(cn4)OCCO5)CC3)c2n1` registered a concentration for half-maximal inhibition (IC50) of 0.144 µg/mL (≈ 0.313 µM).

`COc1ccc2ncc(F)c(CCN3CC[C@@H](NCc4cc5c(cn4)OCCO5)[C@H](O)C3)c2n1`: the IC50 was 0.058 µg/mL (≈ 0.124 µM).

System in a further data set: not listed separately
As to the kind of experiment: Inhibition of Escherichia coli DNA gyrase-dependent DNA replication by scintillation proximity assay.
Settings: not given
For the molecule `COc1ccc2nccc([C@@H](O)CN3CCC(NCc4cc5c(cn4)OCCO5)CC3)c2n1`, the IC50 was found to be 0.056 µg/mL (≈ 0.124 µM).

A further data set relates to Haemophilus influenzae. As to the kind of experiment: Antibacterial activity against Haemophilus influenzae H128 after 18 to 24 hrs by broth microdilution method. The format is functional.
Settings: not given
(In general: Dilution methods test growth across graded concentrations, often in twofold steps.)
`COc1ccc2ncc(F)c(CCN3CC[C@@H](NCc4cc5c(cn4)OCCO5)[C@@H](O)C3)c2n1`: the MIC worked out at 0.5 µg/mL (≈ 1.06 µM).

`COc1ccc2ncc(C#N)c(CCN3CCC(NCc4cc5c(cn4)OCS5)CC3)c2c1` had an MIC of 0.25 µg/mL (≈ 0.542 µM).

On to `COc1ccc2nccc([C@@H](O)CN3CCC(NCc4cc5c(cn4)OCCO5)CC3)c2n1`, for which the MIC worked out at 2 µg/mL (≈ 4.43 µM).

Regarding `COc1ccc2ncc(F)c(CCN3CC[C@H](NCc4cc5c(cn4)OCCO5)[C@@H](O)C3)c2n1`, the MIC stood at 0.5 µg/mL (≈ 1.06 µM).

`COc1ccc2ncc(C#N)c(CCN3CCC(NCc4cc5c(cn4)OCCO5)CC3)c2n1` yielded an MIC of 0.5 µg/mL (≈ 1.09 µM).

Regarding `COc1ccc2ncc(F)c(CCN3CC[C@@H](NCc4cc5c(cn4)OCCO5)[C@H](O)C3)c2n1`, the MIC turned out to be 0.5 µg/mL (≈ 1.06 µM).

Another data set concerns Staphylococcus aureus. As to the kind of experiment: Antibacterial activity against Staphylococcus aureus WCUH 29 after 18 to 24 hrs by broth microdilution method. It counts as functional.
Settings: not given
The molecule `COc1ccc2ncc(F)c(CCN3CC[C@@H](NCc4cc5c(cn4)OCCO5)[C@@H](O)C3)c2n1` displayed an MIC of 0.01 µg/mL (≈ 0.0213 µM).

`COc1ccc2ncc(C#N)c(CCN3CCC(NCc4cc5c(cn4)OCS5)CC3)c2c1`: the MIC was found to be 0.01 µg/mL (≈ 0.0217 µM).

The molecule `COc1ccc2nccc([C@@H](O)CN3CCC(NCc4cc5c(cn4)OCCO5)CC3)c2n1` gave an MIC of 0.06 µg/mL (≈ 0.133 µM).

`COc1ccc2ncc(F)c(CCN3CC[C@H](NCc4cc5c(cn4)OCCO5)[C@@H](O)C3)c2n1` returned an MIC of 0.01 µg/mL (≈ 0.0213 µM).

As to `COc1ccc2ncc(C#N)c(CCN3CCC(NCc4cc5c(cn4)OCCO5)CC3)c2n1`, the MIC is 0.01 µg/mL (≈ 0.0217 µM).

With `COc1ccc2ncc(F)c(CCN3CC[C@@H](NCc4cc5c(cn4)OCCO5)[C@H](O)C3)c2n1`, the MIC was found to be 0.01 µg/mL (≈ 0.0213 µM).

Another data set concerns Streptococcus pneumoniae. The experiment in a line: Antibacterial activity against Streptococcus pneumoniae 1629 after 18 to 24 hrs by broth microdilution method. It counts as functional.
Settings: not given
In turn, `COc1ccc2ncc(F)c(CCN3CC[C@@H](NCc4cc5c(cn4)OCCO5)[C@@H](O)C3)c2n1` returned an MIC of 0.06 µg/mL (≈ 0.128 µM).

`COc1ccc2ncc(C#N)c(CCN3CCC(NCc4cc5c(cn4)OCS5)CC3)c2c1` gave an MIC of 0.01 µg/mL (≈ 0.0217 µM).

For the molecule `COc1ccc2nccc([C@@H](O)CN3CCC(NCc4cc5c(cn4)OCCO5)CC3)c2n1`, the MIC came to 0.125 µg/mL (≈ 0.277 µM).

`COc1ccc2ncc(F)c(CCN3CC[C@H](NCc4cc5c(cn4)OCCO5)[C@@H](O)C3)c2n1` returned an MIC of 0.03 µg/mL (≈ 0.0639 µM).

Molecule `COc1ccc2ncc(C#N)c(CCN3CCC(NCc4cc5c(cn4)OCCO5)CC3)c2n1` had an MIC of 0.03 µg/mL (≈ 0.0651 µM).

Molecule `COc1ccc2ncc(F)c(CCN3CC[C@@H](NCc4cc5c(cn4)OCCO5)[C@H](O)C3)c2n1` gave an MIC of 0.03 µg/mL (≈ 0.0639 µM).

A further data set concerns the target T1, Voltage-gated inwardly rectifying potassium channel KCNH2 (Homo sapiens, UniProt Q12809). As to the kind of experiment: Inhibition of human ERG expressed in HEK293 cells by patch-clamp electrophysiology.
Settings: not given
The format is cell-based. A general note: The patch-clamp technique gives a direct electrical read-out from membranes.
In turn, `COc1ccc2ncc(C#N)c(CCN3CCC(NCc4cc5c(cn4)OCS5)CC3)c2c1` came in with a concentration for half-maximal inhibition (IC50) of 2 µM.

In the case of `COc1ccc2nccc([C@@H](O)CN3CCC(NCc4cc5c(cn4)OCCO5)CC3)c2n1`, the IC50 stood at 4 µM.

A further data set addresses T1, Voltage-gated inwardly rectifying potassium channel KCNH2. As to the kind of experiment: Displacement of [3H]dofetilide from human ERG by liquid scintillation counting.
Settings: not given
In turn, `COc1ccc2ncc(C#N)c(CCN3CCC(NCc4cc5c(cn4)OCS5)CC3)c2c1` returned a concentration for half-maximal inhibition (IC50) of 0.5 µM.

Consider `COc1ccc2nccc([C@@H](O)CN3CCC(NCc4cc5c(cn4)OCCO5)CC3)c2n1`, for which the IC50 amounted to 25.1 µM.

System in another data set: not listed separately
As to the kind of experiment: Distribution coefficient, log D of the compound at pH 7.4. The format is physicochemical. Conditions: octanol/water.
As for `COc1ccc2ncc(F)c(CCN3CC[C@@H](NCc4cc5c(cn4)OCCO5)[C@@H](O)C3)c2n1`, the pH-dependent lipophilicity (logD) (in general, lipophilicity at a set pH, counting ionised and neutral species) was 1.38.

On to `COc1ccc2ncc(C#N)c(CCN3CCC(NCc4cc5c(cn4)OCS5)CC3)c2c1`, for which the pH-dependent lipophilicity (logD) is 2.32.

Consider `COc1ccc2nccc([C@@H](O)CN3CCC(NCc4cc5c(cn4)OCCO5)CC3)c2n1`, for which the logD came out at 0.62.

`COc1ccc2ncc(F)c(CCN3CC[C@H](NCc4cc5c(cn4)OCCO5)[C@@H](O)C3)c2n1`: the log distribution coefficient (logD) came to 2.1.

On to `COc1ccc2ncc(C#N)c(CCN3CCC(NCc4cc5c(cn4)OCCO5)CC3)c2n1`, for which the logD is 1.48.

In the case of `COc1ccc2ncc(F)c(CCN3CC[C@@H](NCc4cc5c(cn4)OCCO5)[C@H](O)C3)c2n1`, the logD stood at 2.16.

Another data set has as its system Streptococcus pneumoniae. The experiment in a line: Antibacterial activity against Streptococcus pneumoniae 1629 infected in rat respiratory tract infection model assessed as log reduction in bacterial burden at 50 mg/kg, po after 1 hr post infection relative to non-treated control. It counts as functional.
Settings: not given
Turning to `COc1ccc2ncc(F)c(CCN3CC[C@@H](NCc4cc5c(cn4)OCCO5)[C@@H](O)C3)c2n1`, the log10cfu came out at 2.

The subject of a further data set is Streptococcus pneumoniae. The experiment in a line: Antibacterial activity against Streptococcus pneumoniae 1629 infected in rat respiratory tract infection model assessed as log reduction in bacterial burden at 50 mg/kg, po after 48 hrs post infection relative to non-treated control.
Settings: not given
The format is functional.
Regarding `COc1ccc2ncc(F)c(CCN3CC[C@@H](NCc4cc5c(cn4)OCCO5)[C@@H](O)C3)c2n1`, the log10cfu entry is recorded as “>=4”.

Another data set deals with Streptococcus pneumoniae. As to the kind of experiment: Antibacterial activity against Streptococcus pneumoniae 1629 infected in rat respiratory tract infection model assessed as complete eradication of bacterial burden at 50 mg/kg, po after 31 hrs post infection. It counts as functional, organism-based. Also noted: dose 50 mg/kg.
Settings: not given
In the case of `COc1ccc2ncc(F)c(CCN3CC[C@@H](NCc4cc5c(cn4)OCCO5)[C@@H](O)C3)c2n1`, the outcome was Active.
